From patent publication US7960408B2, “Quinolinyl and benzothiazolyl modulators” (Amgen Inc., priority 2000, dated 2011)

What was measured:
PPARγ = target: T1, PPARγ (Homo sapiens, UniProt P37231); experiment: PPARγ ligand binding assay utilizing [3H]-BRL 49653 as the radioligand; conditions: concentration required to reduce by 50% the specific binding of [3H]-BRL 49653
T1 construct: made in house
T1 sequence (P37231 1-505): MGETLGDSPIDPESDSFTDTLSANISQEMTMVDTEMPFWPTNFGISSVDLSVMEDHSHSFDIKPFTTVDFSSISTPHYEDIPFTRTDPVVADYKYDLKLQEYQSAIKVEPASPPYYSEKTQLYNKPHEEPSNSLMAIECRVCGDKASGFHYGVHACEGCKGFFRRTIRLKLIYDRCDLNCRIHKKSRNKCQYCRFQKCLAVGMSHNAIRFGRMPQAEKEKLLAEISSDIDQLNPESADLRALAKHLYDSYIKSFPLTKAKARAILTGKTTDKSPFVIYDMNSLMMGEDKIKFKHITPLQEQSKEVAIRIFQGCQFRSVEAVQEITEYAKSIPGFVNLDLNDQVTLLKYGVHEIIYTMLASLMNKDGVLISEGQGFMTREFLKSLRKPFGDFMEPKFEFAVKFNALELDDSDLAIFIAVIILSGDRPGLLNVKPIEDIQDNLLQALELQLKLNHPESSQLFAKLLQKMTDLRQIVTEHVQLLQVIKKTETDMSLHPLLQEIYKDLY
Excerpt: The compounds of the present invention can be evaluated for modulation of the PPARγ receptor using assays such as those described in Jiang, et al., Nature 391:82-86 (1998), Ricote, et al., Nature 391:79-82 (1998) and Lehmann, et al., J. Biol. Chem. 270(12): 12953-12956 (1995). Alternatively, the compounds can be evaluated for their ability to displace radiolabeled BRL 49653 from a PPARγ-GST fusion protein as follows:
PPARγ-GST fusion protein (prepared according to standard procedures), [^3H]—BRL 49653 having 50 Ci/mmol specific activity, Polyfiltronics Unifilter 350 filtration plate and glutathione-Sepharose® beads (from Pharmacia: washed twice with 10× binding buffer in which BSA and DTI can be left out).
Binding buffer (10 mM Tris-HCl, pH 8.0, 50 mM KCI, 10 mM DTT, 0.02% BSA and 0.01% NP-40) is added in 80-μL amounts to the wells of the filtration plate. The test compound is then added in 10 μL of DMSO. The PPARγ-GST fusion protein and radiolabeled BRL compound are premixed in binding buffer containing 10 mM DTT and added in 10-μL amounts to the wells of the plate to provide final concentrations of 1 μg/well of PPARγ-GST fusion protein and 10 nM [^3H]—BRL 49653 compound. The plate is incubated for 15 min. Glutathione-agarose bead is added in 50 μL of binding buffer, and the plate is vigorously shaken for one hour. The plate is washed four times with 200 μL/well of binding buffer (without BSA and DTT). The bottom of the plate is sealed and 200 μL/well of scintillation cocktail is added. The top of the plate is then sealed and the radioactivity is determined.
IC50 values are defined as the concentration of test compounds required to reduce by 50% the specific binding of [^3H]—BRL 49653 and are represented by (+) <30 μM; (++) <10 μM; (+++) <1 μM.

Row | IC50 (PPARγ) [nM] | melting point [°C] | Structure (SMILES)
1 | < 1000 | 263 to 266 | O=C(O)c1cccc2cc(Oc3c(Cl)cc(NS(=O)(=O)c4ccc(Cl)cc4Cl)cc3Cl)cnc12 [Compound 48, 3-[2,6-Dichloro-4-(2,4-dichloro-benzenesulfonylamino)-phenoxy]-quinoline-8-carboxylic acid]
2 | < 1000 | 82 to 84 | O=S(=O)(Nc1cc(Cl)c(Oc2nc3ccc(Cl)cc3s2)c(Cl)c1)c1ccc(C(F)(F)F)cc1Cl [Compound 103, 2-Chloro-N-[3,5-dichloro-4-(6-chloro-benzothiazol-2-yloxy)-phenyl]-4-trifluoromethyl-benzenesulfonamide]
3 | < 1000 | 228 to 232 | O=C(O)c1ccc2ncc(Oc3c(Cl)cc(NS(=O)(=O)c4ccc(Cl)cc4Cl)cc3Cl)cc2c1 [Compound 47, 3-[2,6-Dichloro-4-(2,4-dichloro-benzenesulfonylamino)-phenoxy]-quinoline-6-carboxylic acid]
4 | < 1000 | 219.6 | O=S(=O)(Nc1cc(Cl)c(Sc2cnc3ccccc3c2)c(Cl)c1)c1ccccc1Cl [Compound 3]
5 | < 1000 | 164 to 165 | COc1ccc2nc(Oc3c(Cl)cc(NS(=O)(=O)c4ccc(C(F)(F)F)cc4Cl)cc3Cl)sc2c1 [Compound 106, 2-Chloro-N-[3,5-dichloro-4-(6-methoxybenzothiazol-2-yloxy)-phenyl]-4-trifluoromethyl-benzenesulfonamide]
6 | 1000 to 10000 | – | Cc1cc(S(=O)(=O)Nc2cc(Cl)cc(Oc3nc4c(C)cccc4s3)c2)c(Cl)cc1Cl [Compound 295, 2,4-Dichloro-N-[3-chloro-5-(4-methyl-benzothiazol-2-yloxy)-phenyl]-5-methyl-benzenesulfonamide]
7 | 1000 to 10000 | – | O=S(=O)(Nc1cc(Cl)cc(Oc2nc3cc(Cl)ccc3s2)c1)c1ccc(C(F)(F)F)cc1Cl [Compound 283, 2-Chloro-N-[3-chloro-5-(5-chloro-benzothiazol-2-yloxy)-phenyl]-4-trifluoromethyl-benzenesulfonamide]
8 | < 1000 | – | O=[N+]([O-])c1ccc2nc(Oc3c(Cl)cc(NS(=O)(=O)c4ccc(C(F)(F)F)cc4Cl)cc3Cl)sc2c1 [Compound 438, 2-Chloro-N-[3,5-dichloro-4-(6-nitro-benzothiazol-2-yloxy)-phenyl]-4-trifluoromethyl-benzenesulfonamide]
9 | > 30000 | – | CC(C)(C)c1ccc(S(=O)(=O)Nc2cc(Cl)cc(Oc3nc4cc(Cl)ccc4s3)c2)cc1 [Compound 501, 4-tert-Butyl-N-[3-chloro-5-(5-chloro-benzothiazole-2-yloxy)]-benzenesulfonamide]
10 | 1000 to 10000 | – | O=S(=O)(Nc1cc(Oc2nc3cc(Cl)ccc3s2)cc(Oc2nc3cc(Cl)ccc3s2)c1)c1ccc(Cl)cc1Cl [Compound 323, N-[3,5-Bis-(5-chloro-benzothiazol-2-yloxy)-phenyl]-2,4-dichloro-benzenesulfonamide]
11 | 1000 to 10000 | 73 to 75 | O=S(=O)(Nc1cc(Cl)c(Oc2nc3ccc(Cl)cc3s2)c(Cl)c1)c1ccc(Cl)cc1Cl [Compound 104, 2,4-Dichloro-N-[3,5-dichloro-4-(6-chloro-benzothiazol-2-yloxy)-phenyl]benzenesulfonamide]
12 | 10000 to 30000 | – | O=S(=O)(Nc1ccc(Oc2nc3c(Cl)cccc3s2)c(Cl)c1)c1ccc(C(F)(F)F)cc1Cl [Compound 503, 2-Chloro-N-[3-chloro-4-(4-chloro-benzothiazol-2-oxy)-phenyl]-4-trifluoromethylbenzenesulfonamide]
13 | 1000 to 10000 | – | O=S(=O)(Nc1cc(Cl)c(Oc2nc3c(Cl)cccc3s2)c(Cl)c1)c1ccc(C(F)(F)F)cc1Cl [Compound 424, 2-Chloro-N-[3,5-dichloro-4-(4-chloro-benzothiazol-2-yloxy)-phenyl]-4-trifluoromethyl-benzenesulfonamide]
14 | < 1000 | – | O=S(=O)(Nc1cc(Cl)cc(Oc2nc3cc(Cl)ccc3s2)c1)c1ccc(Cl)cc1Cl [Compound 284, 2,4-Dichloro-N-[3-chloro-5-(5-chloro-benzothiazol-2-yloxy)-phenyl]-benzenesulfonamide]
15 | < 1000 | – | Cc1cc(S(=O)(=O)Nc2cc(Oc3nc4cc(Cl)ccc4s3)cc(Oc3nc4cc(Cl)ccc4s3)c2)c(Cl)cc1Cl [Compound 324, N-[3,5-Bis-(5-chloro-benzothiazol-2-yloxy)-phenyl]-2,4-dichloro-5-methyl-benzenesulfonamide]
16 | < 1000 | – | CS(=O)(=O)Nc1ccc2sc(Oc3c(Cl)cc(NS(=O)(=O)c4ccc(C(F)(F)F)cc4Cl)cc3Cl)nc2c1 [Compound 457, 2-Chloro-N-[3,5-dichloro-4-(5-methanesulfonylamino-benzothiazol-2-yloxy)-phenyl]-4-trifluoromethyl-benzenesulfonamide]
17 | < 1000 | – | O=S(=O)(Nc1cc(Cl)c(Sc2cnc3ccccc3c2)c(Cl)c1)c1ccc(C(F)(F)F)cc1Cl [Compound 4.3]
18 | < 1000 | – | COC(=O)c1ccc2ncc(Oc3c(Cl)cc(NS(=O)(=O)c4ccc(Cl)cc4Cl)cc3Cl)cc2c1 [Compound 45, 3-[2,6-Dichloro-4-(2,4-dichloro-benzenesulfonylamino)-phenoxy]-quinoline-6-carboxylic acid methyl ester]
19 | < 1000 | – | Cc1ccc2nc(Nc3c(Cl)cc(NS(=O)(=O)c4ccc(C(F)(F)F)cc4Cl)cc3Cl)sc2c1 [Compound 86]
20 | < 1000 | – | O=S(=O)(Nc1cc(Cl)cc(Oc2nc3ccc(Cl)cc3s2)c1)c1ccc(Cl)cc1Cl [Compound 303, 2,4-Dichloro-N-[3-chloro-5-(6-chloro-benzothiazol-2-yloxy)-phenyl]-benzenesulfonamide]
21 | < 1000 | – | Cc1cccc2sc(Oc3cc(Cl)cc(NS(=O)(=O)c4ccc(C(F)(F)F)cc4Cl)c3)nc12 [Compound 293, 2-Chloro-N-[3-chloro-5-(4-methyl-benzothiazol-2-yloxy)-phenyl]-4-trifluoromethyl-benzenesulfonamide]
22 | 10000 to 30000 | – | Cc1cccc2sc(Oc3ccc(NS(=O)(=O)c4ccc(C(F)(F)F)cc4Cl)cc3Cl)nc12 [Compound 504, 2-Chloro-N-[3-chloro-4-(4-methyl-benzothiazol-2-oxy)-phenyl]-4-trifluoromethylbenzenesulfonamide]
23 | < 1000 | – | O=S(=O)(Nc1cc(Cl)c(Sc2cnc3ccccc3c2)c(Cl)c1)c1ccc(Cl)cc1Cl [Compound 4.1]
24 | < 1000 | – | O=S(=O)(Nc1cc(Cl)c(Nc2nc3ccc(Cl)cc3s2)c(Cl)c1)c1ccc(Cl)cc1Cl [Compound 71]
25 | < 1000 | – | O=S(=O)(Nc1cc(Cl)c(Cc2cnc3ccccc3c2)c(Cl)c1)c1ccc(Cl)cc1Cl [Compound 232, 2,4-Dichloro-N-(3,5-dichloro-4-quinolin-3-ylmethyl-phenyl)-benzenesulfonamide]
26 | < 1000 | – | Cc1cc(S(=O)(=O)Nc2cc(F)c(Oc3cnc4ccccc4c3)c(Cl)c2)c(Cl)cc1Cl [Compound 50, N-[3-Chloro-5-fluoro-4-(quinolin-3-yloxy)phenyl]-2,4-dichloro-5-methyl-benzenesulfonamide]
27 | < 1000 | – | COC(=O)c1cccc2cc(Oc3c(Cl)cc(NS(=O)(=O)c4ccc(Cl)cc4Cl)cc3Cl)cnc12 [Compound 46, 3-[2,6-Dichloro-4-(2,4-dichloro-benzenesulfonylamino)-phenoxy]-quinoline-8-carboxylic acid methyl ester]
28 | 10000 to 30000 | – | Cc1cccc2sc(Oc3cc(Cl)cc(NS(=O)(=O)c4ccc(Cl)cc4Cl)c3)nc12 [Compound 294, 2,4-Dichloro-N-[3-chloro-5-(4-methyl-benzothiazol-2-yloxy)-phenyl]-benzenesulfonamide]
